Source: patent publication US20120184542A1, “PYRIDO PYRIMIDINES” (priority 2011, published 2012)
Read-outs that look alike come from different tables or passages of the source.

Tests used:
Human DYRK1B = molecular target: T1, Human DYRK1B (Homo sapiens, UniProt Q9Y463); experiment: DYRK1B Kinase TR-FRET (IMAP-Tb) Assay; format: biochemical; settings: for IC50: TR-FRET (IMAP-Tb), ATP 70 μM, 37° C. 60 minutes
T1 construct: purchased Invitrogen PR8350B (former PV4649)

[1] = tested on: SW620 human colon cancer cells; experiment: SW620 Cell Viability Assay; format: cell-based; settings: Homo sapiens, SW-620, 96 h, read-out: Cellular EC50 (μM) SW620
Protocol: Some cells (S—) were allowed to attach for 24 hrs, serum starved for 48 hrs, and then followed with drug treatments Test Compound Solutions were Prepared in Regular Corresponding Media Supplemented with Serum 2. […] Viability Assay: This assay was performed as follows: • Transfer 50 μL of test compound solution per well from the test compound plate onto the cell plate prepared in Step #1. • Mix the plate with treated cells by pipetting up and down three times with 200 μL multi-channel pipette. • Incubate the cells in 5% CO2 incubator @ 37° C. for 4 days. • Run the CellTiter-Glo™ Luminescent Cell Viability Assay.

Human DYRK1A = molecular target: T2, Human DYRK1A (Homo sapiens, UniProt Q13627); experiment: DYRK1A Kinase TR-FRET (IMAP-Tb) Assay; format: biochemical; settings: TR-FRET (IMAP-Tb); ATP 70 μM; 37° C. 60 minutes; read-out: Enzyme IC50 (μM) DYRK1A
T2 construct: purchased Invitrogen PV3997
Text: The kinase TR-FRET (IMAP-Tb) assay uses a fluorescence labeled substrate peptide in the kinase reaction. Upon phosphorylation by the kinase, phosphopeptide is produced, which will be detected by the binding solution provided in IMAP TR-FRET binding kit. After the completion of the kinase reaction, the reaction will be stopped by adding the binding solution containing terbium tracer. This tracer is immobilized on the surface of the IMAP beads, which also contain metal ions on the beads that bind to the phospho-groups of the products. Thus the phosphorylated product of the reaction can enter into close proximity to the tracer, producing resonance energy transfer. Due to the long lifetime of terbium (Tb) fluorescence the detection can be run in time resolved mode, which virtually eliminates fluorescence interference from assay components or compounds.
The TR-FRET signal measurement from this assay, given as an IC50 measurement, is a measure of a test compound's ability to interfere with the phosphorylation of the peptide substrate, that is it inhibits the phosphorylation of the substrate peptide by DYRK1A, and is thus a measure of the test compound's ability to inhibit the activity of DYRK1A.
• 1. Human DYRK1A: from Invitrogen. Part #PV3997 • 2. Substrate Peptide: […] • 3. IMAP TR-FRET IPP Explorer Kit: from Molecular Devices. Part #R8157 • 4. Kinase Assay Buffer (KAB): 10 mM HEPES pH 7.0, 50 mM NaCl, 5 mM MgCl2, 1 mM DTT, 1 mM NaVO4, 200 μg/mL BSA (0.02%) • 5. Assay Plate: Remp polypropylene clear 384-well microplate. […] Detection Plate: Costa black 384-well microplate.
• 1. Transfer 1.5 μL of 20× compound solution to each well of an assay plate. • 2. Add to each well 22.5 μL of KAB Buffer. • 3. Add to each well 3 μL of the solution of DYRK1A and ATP. […] Add to each well 3 μL of the substrate peptide. The assay concentration is 1.0 μM • 5. Incubate the assay plates at 37° C. for 60 minutes. • 6. Add 18 μL of Detection Solution (1:800 diluted Progress bead stock, 1:400 diluted Tb stock, 80% Buffer A, and 20% Buffer B) into each well of detection plates. • 7. Transfer 6 μL of assay solution from the assay plate to the detection plate. • 8. Shake detection plates for 30 minutes. • 9. Read plates in Envision with wavelength set at excitation 340 nm for Tb, emission 490 nm, and […].

[2] = read-out: Enzyme IC50 (μM) DYRK1B

T1 sequence (Q9Y463 whole entry): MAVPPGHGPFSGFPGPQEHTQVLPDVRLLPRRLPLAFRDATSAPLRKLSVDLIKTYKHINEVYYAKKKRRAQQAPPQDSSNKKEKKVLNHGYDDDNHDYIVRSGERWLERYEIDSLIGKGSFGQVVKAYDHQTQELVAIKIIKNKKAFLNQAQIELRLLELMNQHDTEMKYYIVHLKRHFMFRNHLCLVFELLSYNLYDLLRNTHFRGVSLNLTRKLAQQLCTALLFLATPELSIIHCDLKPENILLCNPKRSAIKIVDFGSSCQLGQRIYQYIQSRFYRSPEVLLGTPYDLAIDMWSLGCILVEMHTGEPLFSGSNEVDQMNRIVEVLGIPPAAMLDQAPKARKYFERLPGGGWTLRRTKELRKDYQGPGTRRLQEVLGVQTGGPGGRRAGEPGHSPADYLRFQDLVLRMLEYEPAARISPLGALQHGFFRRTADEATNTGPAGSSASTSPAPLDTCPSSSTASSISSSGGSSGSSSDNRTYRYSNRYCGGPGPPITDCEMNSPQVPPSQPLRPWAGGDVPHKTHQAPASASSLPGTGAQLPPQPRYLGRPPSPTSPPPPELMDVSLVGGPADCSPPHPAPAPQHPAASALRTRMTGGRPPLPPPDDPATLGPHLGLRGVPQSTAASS

Row | SMILES | IC50 (Human DYRK1B; Enzyme IC50 (μM) DYRK1B) | EC50 [1] | IC50 (Human DYRK1B; [2]) | IC50 (Human DYRK1A) | inhibition at 10 µM (Human DYRK1B; read-out: % inhibition of DYRK1B at 10 μM test compound concentration)
1 | COC(=O)c1ccc(C)c(NC(=O)c2cc3cnc(OC)nc3[nH]c2=O)c1 [Example 19, 3-[(2-Methoxy-7-oxo-7,8-dihydro-pyrido[2,3-d]pyrimidine-6-carbonyl)-amino]-4-methyl-benzoic acid methyl ester] | 0.252 µM | 92.5 µM | – | – | –
2 | COC(=O)c1ccc(Cl)c(NC(=O)c2cc3cnc(OC)nc3[nH]c2=O)c1 [Example 21, 4-Chloro-3-[(2-methoxy-7-oxo-7,8-dihydro-pyrido[2,3-d]pyrimidine-6-carbonyl)-amino]-benzoic acid methyl ester] | 0.135 µM | 3.34 µM | – | – | –
3 | COc1ncc2cc(C(=O)Nc3cc(C(=O)NCc4ccccc4)ccc3Cl)c(=O)[nH]c2n1 [Example 31, 2-Methoxy-7-oxo-7,8-dihydro-pyrido[2,3-d]pyrimidine-6-carboxylic acid (5-benzylcarbamoyl-2-chloro-phenyl)-amide] | 0.048 µM | > 100 µM | – | – | –
4 | COc1ncc2cc(C(=O)Nc3cc(C(=O)NCc4cccs4)ccc3Cl)c(=O)[nH]c2n1 [Example 57, 2-Methoxy-7-oxo-7,8-dihydro-pyrido[2,3-d]pyrimidine-6-carboxylic acid {2-chloro-5-[(thiophen-2-ylmethyl)-carbamoyl]-phenyl}-amide] | 0.096 µM | 2.41 µM | – | – | –
5 | COc1ncc2cc(C(=O)Nc3cc(C(=O)NCc4ccsc4)ccc3Cl)c(=O)[nH]c2n1 [Example 58, 2-Methoxy-7-oxo-7,8-dihydro-pyrido[2,3-d]pyrimidine-6-carboxylic acid {2-chloro-5-[(thiophen-3-ylmethyl)-carbamoyl]-phenyl}-amide] | 0.04 µM | 1.73 µM | – | – | –
6 | COc1ncc2cc(C(=O)Nc3cc(C(=O)NC(CN)c4ccccc4)ccc3Cl)c(=O)[nH]c2n1 (stereo not shown) [Example 72, 2-Methoxy-7-oxo-7,8-dihydro-pyrido[2,3-d]pyrimidine-6-carboxylic acid [5-(2-amino-1-phenyl-ethylcarbamoyl)-2-chloro-phenyl]-amide] | – | 0.828 µM | 0.00935 µM | – | –
7 | COc1ncc2cc(C(=O)Nc3cc(C(=O)NC(CCN)c4ccccc4)ccc3Cl)c(=O)[nH]c2n1 (stereo not shown) [Example 76, 2-Methoxy-7-oxo-7,8-dihydro-pyrido[2,3-d]pyrimidine-6-carboxylic acid [5-(3-amino-1-phenyl-propylcarbamoyl)-2-chloro-phenyl]-amide] | – | 0.657 µM | 0.0128 µM | – | –
8 | CNC(=O)c1ccc(Cl)c(NC(=O)c2cc3cnc(OC)nc3[nH]c2=O)c1 [Example 78, 2-Methoxy-7-oxo-7,8-dihydro-pyrido[2,3-d]pyrimidine-6-carboxylic acid (2-chloro-5-methylcarbamoyl-phenyl)-amide] | 0.248 µM | 2.52 µM | – | – | –
9 | CN(C)c1ncc2cc(C(=O)Nc3cc(C(=O)NCc4cccc(Cl)c4)ccc3Cl)c(=O)[nH]c2n1 [Example 155, N-(2-Chloro-5-(3-chlorobenzylcarbamoyl)phenyl)-2-(dimethylamino)-7-oxo-7,8-dihydropyrido[2,3-d]pyrimidine-6-carboxamide] | – | – | 0.0923 µM | 0.0485 µM | –
10 | C[C@@H](NC(=O)c1ccc(Cl)c(NC(=O)c2cc3cnc(N4CCOCC4)nc3[nH]c2=O)c1)c1ccccc1 [Example 156, 2-Morpholin-4-yl-7-oxo-7,8-dihydro-pyrido[2,3-d]pyrimidine-6-carboxylic acid [2-chloro-5-((R)-1-phenyl-ethylcarbamoyl)-phenyl]-amide] | – | – | 0.586 µM | 0.189 µM | –
11 | C[C@H](NC(=O)c1ccc(Cl)c(NC(=O)c2cc3cnc(N4CCOCC4)nc3[nH]c2=O)c1)c1ccccc1 [Example 157, 2-Morpholin-4-yl-7-oxo-7,8-dihydro-pyrido[2,3-d]pyrimidine-6-carboxylic acid [2-chloro-5-((S)-1-phenyl-ethylcarbamoyl)-phenyl]-amide] | – | – | > 10 µM | > 10 µM | –
12 | COc1ncc2cc(C(=O)Nc3cc(C(=O)N[C@@H](CCO)c4ccccc4)ccc3Cl)c(=O)[nH]c2n1 [Example 159, (S)—N-(2-Chloro-5-(3-hydroxy-1-phenylpropylcarbamoyl)phenyl)-2-methoxy-7-oxo-7,8-dihydropyrido[2,3-d]pyrimidine-6-carboxamide] | – | – | – | 3.88 µM | 22%
13 | C[C@H](NC(=O)c1ccc(Cl)c(NC(=O)c2cc3cnc(N4CCN(C)CC4)nc3[nH]c2=O)c1)c1ccccc1 [Example 173, 2-(4-Methyl-piperazin-1-yl)-7-oxo-7,8-dihydro-pyrido[2,3-d]pyrimidine-6-carboxylic acid [2-chloro-5-((S)-1-phenyl-ethylcarbamoyl)-phenyl]-amide] | – | – | > 10 µM | > 10 µM | –
14 | CN1CCN(c2ncc3cc(C(=O)Nc4cc(C(=O)NCc5cccc(F)c5)ccc4Cl)c(=O)[nH]c3n2)CC1 [Example 177, 2-(4-Methyl-piperazin-1-yl)-7-oxo-7,8-dihydro-pyrido[2,3-d]pyrimidine-6-carboxylic acid [2-chloro-5-(3-fluoro-benzylcarbamoyl)-phenyl]amide] | – | – | 0.176 µM | 0.0715 µM | –
15 | CN1CCN(c2ncc3cc(C(=O)Nc4cc(C(=O)NCc5cc(F)ccc5F)ccc4Cl)c(=O)[nH]c3n2)CC1 [Example 178, 2-(4-Methyl-piperazin-1-yl)-7-oxo-7,8-dihydro-pyrido[2,3-d]pyrimidine-6-carboxylic acid [2-chloro-5-(2,5-difluoro-benzylcarbamoyl)-phenyl]amide] | – | – | 0.356 µM | 0.0748 µM | –
16 | CN1CCN(c2ncc3cc(C(=O)Nc4cc(C(=O)N[C@H](CN)Cc5cccc(F)c5)ccc4Cl)c(=O)[nH]c3n2)CC1 [Example 187, 2-(4-Methyl-piperazin-1-yl)-7-oxo-7,8-dihydro-pyrido[2,3-d]pyrimidine-6-carboxylic acid {5-[(S)-1-aminomethyl-2-(3-fluoro-phenyl)-ethylcarbamoyl]-2-chloro-phenyl}-amide] | – | – | 0.202 µM | 0.13 µM | –
17 | COc1ncc2cc(C(=O)Nc3cc(C(=O)NC(CN)C4CCCCC4)ccc3Cl)c(=O)[nH]c2n1 (stereo not shown) [Example 192, N-(5-(2-Amino-1-cyclohexylethylcarbamoyl)-2-chlorophenyl)-2-methoxy-7-oxo-7,8-dihydropyrido[2,3-d]pyrimidine-6-carboxamide] | – | – | 0.047 µM | 0.036 µM | –
18 | COc1ncc2cc(C(=O)Nc3cc(C(=O)NC(c4ccccc4)C(F)(F)CN)ccc3Cl)c(=O)[nH]c2n1 (stereo not shown) [Example 196, N-(5-(3-amino-2,2-difluoro-1-phenylpropylcarbamoyl)-2-chlorophenyl)-2-methoxy-7-oxo-7,8-dihydropyrido[2,3-d]pyrimidine-6-carboxamide] | – | – | 0.339 µM | 0.175 µM | –
19 | COc1ncc2cc(C(=O)Nc3cc(C(=O)NC(CCN)C4CCCC4)ccc3Cl)c(=O)[nH]c2n1 (stereo not shown) [Example 198, 2-Methoxy-7-oxo-7,8-dihydro-pyrido[2,3-d]pyrimidine-6-carboxylic acid [5-(3-amino-1-cyclopentyl-propylcarbamoyl)-2-chloro-phenyl]-amide] | – | – | 0.36 µM | 0.47 µM | –
20 | COc1ncc2cc(C(=O)Nc3cc(C(=O)NC(CN)C4CCCC4)ccc3Cl)c(=O)[nH]c2n1 (stereo not shown) [Example 200, 2-Methoxy-7-oxo-7,8-dihydro-pyrido[2,3-d]pyrimidine-6-carboxylic acid [5-(2-amino-1-cyclopentyl-ethylcarbamoyl)-2-chloro-phenyl]-amide] | – | – | 0.47 µM | 0.54 µM | –
